Measurements from patent publication US8741892B2, “Compounds” (Boehringer Ingelheim International GmbH, priority 2011, dated 2014).

Target: T1, human recombinant mGluR5 (Homo sapiens, UniProt P41594)
T1 construct: expressed in transfected cells; host or cells: HEK 293
Test: positive modulation of mGluR5, calcium based FLIPR assay
Conditions: HEK 293 cell line expressing human recombinant mGluR5; EC50 of the modulation from peak Ca fluorescence signal after glutamate at approx. 5% basal stimulation
Description: The positive modulation of mGluR5 is measured in a HEK 293 cell line expressing human recombinant mGluR5 and is detected with calcium based FLIPR assay. The cells are cultured with DMEM supplemented with 10% FCS, 2 μg/mL tetracycline, 100 μg/mL hygromycin and 500 μg/mL geneticin. The cell culture media is exchanged for tetracycline-free cell culture media 3-7 days before the assay. One day before the assay the cell culture medium is exchanged to DMEM without glutamine and phenol red and supplemented with 10% FCS, 100 μg/mL hygromycin and 500 μg/mL geneticin. On the assay day, the medium of the subconfluent cultures is removed and the cells are detached by addition of 2.5 ml EDTA (0.02%) per 175 cm2 culture flask for 1 minute. The cells are resuspend in Ringer solution (140 mM NaCl, 5 mM KCl, 2.5 mM CaCl2, 1.5 mM MgCl2, 5 mM Glucose, 10 mM Hepes; adjusted to pH 7.4 with NaOH), pooled and Ringer solution added to adjust the volume to 50 mL. The cell suspension is centrifuged for […] at 1500 U/min (425 g). The supernatant is removed and the cells washed a second time with 50 ml fresh Ringer solution and centrifuged again as before. The supernatant is again removed and the pellet resuspended in Ringer solution to 1,000,000 cells/ml (1×10^6 cells/mL). The cells are plated onto BD BioCoat Poly-D-Lysine 384 well plates (20.000 cells/well; 20 μl/well). The lid covered plates are then incubated until use at 37° C./10% CO2. For dye loading, 20 μl of Calcium-4 assay kit solution (prepared according to the manufacturer's description in Ringer solution) are added to the cells and the plates are incubated for […] 37° C. and then […] at room temperature.
Controls, Compound Dilution and Assay Execution:
Each assay plate contained wells with “high” and “low” controls:
Low controls 1% DMSO/ringer solution+basal glutamate activation (defined as 100% CTL).
High controls 10 μM CDPPB+basal glutamate activation (defined as 200% CTL).
Test compounds are dissolved and diluted in DMSO to 100-fold the desired concentrations. In a second step, the compounds are diluted in Ringer solution such that the compounds are 4-fold more concentrated than the desired final assay concentration. The final DMSO concentration was 1%.
20 μl of each compound solution are then transferred to the assay plate and the Ca2+ kinetic is measured to determine any intrinsic compound activity. After 5 mM incubation in the FLIPR device, the second stimulation with 20 μl of glutamate in Ringer solution (glutamate concentration adjusted to approximately 5% basal stimulation of the maximal possible glutamate effect) is added and the kinetic Ca2+ response of the wells was measured for the modulation effect.
The peak height of the Ca release related fluorescence signal (9-66) is used for the EC50. The EC50 of the modulation is calculated over a nonlinear regression with GraphPad Prism (Table 1).

T1 sequence (P41594 21-1212): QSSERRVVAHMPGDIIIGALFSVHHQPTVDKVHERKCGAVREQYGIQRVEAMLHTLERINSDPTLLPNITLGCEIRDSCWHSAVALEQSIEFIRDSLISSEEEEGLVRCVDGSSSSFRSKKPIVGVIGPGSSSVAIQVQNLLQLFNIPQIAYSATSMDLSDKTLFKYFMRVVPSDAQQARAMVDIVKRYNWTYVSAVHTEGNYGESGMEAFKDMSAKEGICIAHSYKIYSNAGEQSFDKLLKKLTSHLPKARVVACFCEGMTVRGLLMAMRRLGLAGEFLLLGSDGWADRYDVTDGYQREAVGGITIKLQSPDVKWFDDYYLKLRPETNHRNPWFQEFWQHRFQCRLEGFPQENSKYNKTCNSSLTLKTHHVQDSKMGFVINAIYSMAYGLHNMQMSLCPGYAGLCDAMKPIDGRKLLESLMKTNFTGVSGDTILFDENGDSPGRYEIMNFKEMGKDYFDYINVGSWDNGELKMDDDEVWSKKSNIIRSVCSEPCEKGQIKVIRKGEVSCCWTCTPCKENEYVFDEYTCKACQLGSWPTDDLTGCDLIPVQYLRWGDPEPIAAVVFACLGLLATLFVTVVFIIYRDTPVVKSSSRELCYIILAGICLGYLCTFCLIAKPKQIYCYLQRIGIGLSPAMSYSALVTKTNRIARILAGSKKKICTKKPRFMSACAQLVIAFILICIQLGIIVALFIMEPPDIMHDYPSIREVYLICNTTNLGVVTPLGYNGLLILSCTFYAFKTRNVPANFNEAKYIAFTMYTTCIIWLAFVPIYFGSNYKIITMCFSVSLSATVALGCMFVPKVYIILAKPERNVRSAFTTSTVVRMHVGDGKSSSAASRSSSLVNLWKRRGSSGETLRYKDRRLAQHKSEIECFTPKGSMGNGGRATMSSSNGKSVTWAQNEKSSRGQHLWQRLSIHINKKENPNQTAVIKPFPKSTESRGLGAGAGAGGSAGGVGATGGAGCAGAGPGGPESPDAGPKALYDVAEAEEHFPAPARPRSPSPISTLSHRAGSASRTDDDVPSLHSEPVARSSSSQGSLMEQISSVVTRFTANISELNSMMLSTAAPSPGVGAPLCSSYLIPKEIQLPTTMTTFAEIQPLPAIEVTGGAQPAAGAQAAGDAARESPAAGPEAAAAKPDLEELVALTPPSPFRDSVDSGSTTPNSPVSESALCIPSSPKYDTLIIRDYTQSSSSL

Going from `Cc1cc(-c2cc(-c3ccccc3)n(CC(=O)N3CCc4cc(-c5ccccc5)nnc4CC3)n2)ccc1F` [Example 7.01.082] to `Cc1cc(-c2cc(-c3ccccc3)n(CC(=O)N3CCc4ncnc(-c5ccccc5)c4CC3)n2)ccc1F` [Example 7.01.092], the EC50 falls from 66 nM to 33 nM (2-fold). The second is the more potent here.

`COc1cc(C2=CCN(C(=O)Cn3nc(-c4ccc(C)c(C)c4)cc3-c3ccccc3)CC2)ncn1` [Example 7.02.087] and `Cc1cnc(C2=CCN(C(=O)Cn3nc(-c4ccc(F)c(C)c4)cc3-c3ccccc3)CC2)nc1` [Example 7.02.102] are within 1.5-fold of each other in EC50: 28 nM for the first, 27 nM for the second.

Going from `Cc1nc2c(o1)CN(C(=O)Cn1nc(-c3ccc(F)c(C)c3)cc1-c1ccccc1)C2` [Example 7.02.212] to `Cc1nc2c(s1)CN(C(=O)Cn1nc(-c3ccc(F)c(C)c3)cc1-c1ccccc1)C2` [Example 7.02.020], the EC50 rises from 3 nM to 21 nM (7-fold). The first is the more potent here.

First: Cc1nc2c(s1)CN(C(=O)Cn1nc(-c3ccc(C(F)F)cc3)cc1-c1ccccc1)C2 [Example 7.02.260]
Second: Cc1nc2c(s1)CN(C(=O)Cn1nc(-c3ccc(OC(F)F)cn3)cc1-c1ccccc1)C2 [Example 7.02.237]
The EC50 of the first is 4.3-fold lower: 26 nM for the first, 111 nM for the second. The first is the more potent here.

First: CCc1cc(-c2ccc(F)c(C)c2)nn1CC(=O)N1CCc2nc(C)oc2C1 [Example 7.01.077]
Second: COCc1cc(-c2ccc(F)c(C)c2)nn1CC(=O)N1CCc2nc(C)oc2C1 [Example 7.01.057]
The EC50 of the first is 6.7-fold lower: 110 nM for the first, 740 nM for the second.

`CCc1cc(-c2ccc(F)c(C)c2)nn1CC(=O)N1CCN(c2nnc(C)o2)CC1` [Example 7.02.220] and `CCc1cc(-c2ccc(F)c(C)c2)nn1CC(=O)N1CCC(c2nnc(C)o2)CC1` [Example 7.02.157] are within 1.5-fold of each other in EC50: 290 nM for the first, 430 nM for the second.

Compared with `COc1ccc(-c2cc(C(C)C)n(CC(=O)N3CCc4cc(OC)ccc4C3)n2)cc1` [Example 7.02.039], `COc1ccc(-c2cc(C(C)C)n(CC(=O)N3CCc4nc(C)oc4C3)n2)cc1` [Example 7.02.043] is 1.9-fold higher in EC50: 915 nM for the first, 1740 nM for the second. The first is the more potent here.

Going from `COc1cccc(-c2cc(C3CCCCC3)n(CC(=O)N3CCN(c4cccc(OC)c4)C(=O)C3)n2)c1` [Example 7.02.053] to `COc1cccc(-c2cc(C3CCCCC3)n(CC(=O)N3CCc4nc(N)sc4CC3)n2)c1` [Example 7.02.052], the EC50 falls from 552 nM to 297 nM (1.9-fold). The second is the more potent here.

First: Nc1nc2c(s1)CCN(C(=O)Cn1nc(-c3ccc(F)cn3)cc1-c1ccccc1)CC2 [Example 7.02.058]
Second: Cc1nc2c(s1)CCN(C(=O)Cn1nc(-c3ccc(F)cn3)cc1-c1ccccc1)CC2 [Example 7.02.056]
The EC50 of the first is 3.1-fold higher: 750 nM for the first, 245 nM for the second.

First: Cc1nc2c(s1)CCN(C(=O)Cn1nc(-c3ccc(F)c(C)c3)cc1-c1ccccc1)CC2 [Example 7.02.015]
Second: COc1ccc(-c2cc(-c3ccccc3)n(CC(=O)N3CCc4nc(C)sc4CC3)n2)cc1C [Example 7.02.240]
The EC50 of the first is 5.7-fold lower: 15 nM for the first, 85 nM for the second. The first is the more potent here.

First: Cc1nc(N2CCN(C(=O)Cn3nc(-c4ccc(F)c(C)c4)cc3C)CC2)no1 [Example 7.02.154]
Second: CCCc1cc(-c2ccc(F)c(C)c2)nn1CC(=O)N1CCN(c2noc(C)n2)CC1 [Example 7.02.211]
The EC50 of the first is 8.3-fold higher: 108 nM for the first, 13 nM for the second.

`O=C(Cn1nc(-c2ccccc2)cc1-c1ccccc1)N1CCN(c2ccccc2)C(=O)C1` [Example 7.02.003] and `O=C(Cn1nc(-c2ccccc2)cc1-c1ccccc1)N1CCc2c(Cl)cccc2C1` [Example 7.01.039] are within 1.5-fold of each other in EC50: 925 nM for the first, 752 nM for the second.

Compared with `C=CCNC(=O)Nc1nc2c(s1)CN(C(=O)Cn1nc(-c3ccccc3)cc1-c1ccccc1)CC2` [Example 7.01.012], `CCNC(=O)Nc1nc2c(s1)CN(C(=O)Cn1nc(-c3ccccc3)cc1-c1ccccc1)CC2` [Example 7.01.041] is 1.9-fold higher in EC50: 829 nM for the first, 1550 nM for the second. The first is the more potent here.

First: COc1cccc(N2CCN(C(=O)Cn3nc(-c4ccc(F)cc4)cc3-c3ccc(F)cc3)CC2=O)c1 [Example 7.02.012]
Second: CCc1cc(-c2ccc(F)cc2)nn1CC(=O)N1CCN(c2cccc(OC)c2)C(=O)C1 [Example 7.02.028]
The EC50 of the first is 20-fold lower: 47 nM for the first, 943 nM for the second.

Compared with `CCc1cc(-c2ccc(F)c(C)c2)nn1CC(=O)N1CCc2ccsc2C1` [Example 7.01.076], `CCc1cc(-c2ccc(F)c(C)c2)nn1CC(=O)N1CCc2ccc(N)cc2CC1` [Example 7.01.072] is 1.7-fold lower in EC50: 412 nM for the first, 245 nM for the second.

First: CCc1cc(-c2ccc(F)c(C)c2)nn1CC(=O)N1CCc2ccc(C(=O)OC)cc2CC1 [Example 7.01.070]
Second: COC(=O)c1ccc2c(c1)CCN(C(=O)Cn1nc(-c3ccc(F)c(C)c3)cc1-c1ccccc1)CC2 [Example 7.01.088]
The EC50 of the first is 4.4-fold higher: 128 nM for the first, 29 nM for the second. The second is the more potent here.

Going from `Nc1ccc2c(c1)CCN(C(=O)Cn1nc(-c3ccccc3)cc1-c1ccccc1)CC2` [Example 7.01.036] to `O=C(Cn1nc(-c2ccccc2)cc1-c1ccccc1)N1CCc2cn[nH]c2CC1` [Example 7.01.006], the EC50 falls from 1320 nM to 870 nM (1.5-fold). The second is the more potent here.

`COCCCc1cc(-c2ccc(F)c(C)c2)nn1CC(=O)N1CCc2nc(N)sc2CC1` [Example 7.02.104] and `CCc1cc(-c2ccc(F)c(C)c2)nn1CC(=O)N1CCc2nc(OC)sc2CC1` [Example 7.02.164] are within 1.5-fold of each other in EC50: 48 nM for the first, 46 nM for the second.

First: COc1cccc(N2CCN(C(=O)Cn3nc(-c4cc(C)c(C)cn4)cc3-c3ccccc3)CC2=O)c1 [Example 7.02.064]
Second: COc1ccc(-c2cc(-c3ccccc3)n(CC(=O)N3Cc4nc(C)sc4C3)n2)cc1C [Example 7.02.233]
The EC50 of the first is 1.6-fold lower: 177 nM for the first, 280 nM for the second. The first is the more potent here.

Compared with `Cc1nc2c(s1)CN(C(=O)Cn1nc(-c3ccc(F)c(C)c3)cc1CC(C)C)C2` [Example 7.02.121], `Cc1nc2c(o1)CN(C(=O)Cn1nc(-c3ccc(F)c(C)c3)cc1C)C2` [Example 7.02.155] is 1.9-fold higher in EC50: 49 nM for the first, 92 nM for the second. The first is the more potent here.

Going from `CCc1cc(-c2cccc(Cl)c2)nn1CC(=O)N1CCC(c2ncc(C)o2)CC1` [Example 7.02.108] to `Cc1cnc(C2CCN(C(=O)Cn3nc(-c4ccc(F)c(C)c4)cc3-c3ccccc3)CC2)o1` [Example 7.02.098], the EC50 falls from 127 nM to 12 nM (11-fold).

Compared with `Cc1nnc(N2CCN(C(=O)Cn3nc(-c4cc(C)c(F)cn4)cc3-c3ccccc3)CC2)o1` [Example 7.02.180], `Cc1nnc(N2CCN(C(=O)Cn3nc(-c4ccc(F)c(C)n4)cc3-c3ccccc3)CC2)o1` [Example 7.02.179] is 4.5-fold lower in EC50: 1070 nM for the first, 236 nM for the second.

Compared with `CCc1cc(-c2ccc(C)c(F)c2)nn1CC(=O)N1Cc2nc(C)oc2C1` [Example 7.02.245], `CCCc1cc(-c2ccc(F)c(C)c2)nn1CC(=O)N1CCc2nc(C)oc2CC1` [Example 7.02.215] is 26-fold lower in EC50: 236 nM for the first, 9 nM for the second. The second is the more potent here.

`Cc1csc(N2CCN(C(=O)Cn3nc(-c4ccc(F)c(C)c4)cc3-c3ccccc3)CC2)n1` [Example 7.02.159] and `O=C(Cn1nc(-c2ccccc2)cc1-c1ccccc1)N1CCN(c2nccs2)CC1` [Example 7.01.043] are within 1.5-fold of each other in EC50: 44 nM for the first, 40 nM for the second.

Compared with `CCCc1cc(-c2ccc(F)c(C)c2)nn1CC(=O)N1CCC(c2ncc(OC)cn2)CC1` [Example 7.02.069], `CCc1cc(-c2ccc(F)c(C)c2)nn1CC(=O)N1CCc2cn[nH]c2CC1` [Example 7.01.098] is 2.6-fold higher in EC50: 187 nM for the first, 477 nM for the second.

First: Cc1cc(-c2cc(-c3ccccc3)n(CC(=O)N3CC=C(c4ncccn4)CC3)n2)ccc1F [Example 7.02.014]
Second: O=C(Cn1nc(-c2ccccc2)cc1-c1ccccc1)N1CCc2c(F)ccc(F)c2C1 [Example 7.01.024]
The EC50 of the first is 55-fold lower: 21 nM for the first, 1160 nM for the second.

Going from `Cc1nc(C2CCN(C(=O)Cn3nc(-c4ccccc4)cc3-c3ccccc3)CC2)oc1C` [Example 7.02.008] to `Nc1nc2c(s1)CCN(C(=O)Cn1nc(-c3ccccc3)cc1-c1ccccc1)CC2` [Example 7.01.023], the EC50 falls from 997 nM to 166 nM (6-fold).

Going from `Cc1nc2c(o1)CN(C(=O)Cn1nc(-c3ccc(OC(F)F)cc3)cc1-c1ccccc1)C2` [Example 7.02.223] to `Cc1nc2c(s1)CCN(C(=O)Cn1nc(-c3ccc(OC(F)F)cc3)cc1-c1ccccc1)CC2` [Example 7.02.221], the EC50 falls from 13 nM to 4 nM (3.2-fold).

Going from `COc1ccc(-c2cc(C(C)C)n(CC(=O)N3CCc4nc(N)sc4CC3)n2)cc1` [Example 7.02.038] to `CCc1cc(-c2cccc(C)c2)nn1CC(=O)N1CCc2nc(C)sc2CC1` [Example 7.02.084], the EC50 falls from 210 nM to 73 nM (2.9-fold).

First: Cc1nc2c(s1)CCN(C(=O)Cn1nc(-c3ccc(F)cn3)cc1-c1ccc(F)cc1)CC2 [Example 7.02.061]
Second: Cc1nc2c(s1)CN(C(=O)Cn1nc(-c3ccc(F)c(C)n3)cc1-c1ccccc1)C2 [Example 7.02.172]
The EC50 of the first is 1.5-fold higher: 96 nM for the first, 64 nM for the second. The second is the more potent here.
